Patent US20140107109A1, “AMINO-DIHYDROTHIAZINE AND AMINO-DIOXIDO DIHYDROTHIAZINE COMPOUNDS AS BETA-SECRETASE ANTAGONISTS AND METHODS OF USE” (Amgen Inc., priority 2012, published 2014)
Read-outs that look alike come from different tables or passages of the source.

Tests used:
[1] = biological target: Beta Secretase enzyme (BACE1) (Homo sapiens, UniProt P56817); assay: In vitro enzymatic BACE FRET assay; type: biochemical
In short: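 Readout: dequenched fluorescence (ex 488 nm/[…]) after neutralizing with Tris buffer. Reactions, begun by adding 50 nM quenched peptide substrate spanning the BACE cleavage site, were incubated one hour at pH 4.2 in 0.05 M acetate with 100 uM genapol and 10% final DMSO.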

Cathepsin D (Cat D) = biological target: T1, Cathepsin D (Cat D) (Homo sapiens, UniProt P07339); assay: In vitro enzymatic Cathepsin D (Cat D) FRET assay; type: biochemical; details: read-out: CatD IC50
T1 construct: Recombinant Cat D was expressed in CHO cells; made in house; host or cells: CHO cells
In short: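 FRET read-out: a fluorophore/quencher-labelled peptide substrate is cleaved by 9 nM Cat D (recombinant, CHO-expressed) following a one-hour preincubation with inhibitor dilutions in DMSO. Tris buffer added to neutralize pH ends the reaction before fluorescence measurement.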

[2] = test system: Aβ40 in conditioned medium of cells stably expressing Amyloid Precursor Protein (APP); assay: In vitro BACE cell-based assay (HEK cell assay), Aβ40 sandwich ELISA
In short: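 Aβ40 in conditioned medium was quantified by time-resolved fluorescence sandwich ELISA (pAb40 capture 3 h at 4 °C, biotin-6E10 detection 2 h at 4 °C) after 24 h compound exposure of APP-expressing cells. Doses spanned 10 points from 100 μM or 10 μM top, 0.1% DMSO; IC50 was derived from percent of control.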

[3] = Homo sapiens, HEK293, average IC50, cell assay
[4] = average IC50, enzyme assay, read-out: BACE1 FRET assay IC50
[5] = read-out: BACE1 FRET assay IC50
[6] = Homo sapiens, HEK293, Aβ40, 24 h incubation
[7] = Homo sapiens, HEK293, average IC50, HEK cell assay
[8] = average IC50, read-out: BACE1 FRET assay IC50
[9] = Homo sapiens, HEK293, average IC50, HEK cells

T1 sequence (P07339 65-412, species assumed): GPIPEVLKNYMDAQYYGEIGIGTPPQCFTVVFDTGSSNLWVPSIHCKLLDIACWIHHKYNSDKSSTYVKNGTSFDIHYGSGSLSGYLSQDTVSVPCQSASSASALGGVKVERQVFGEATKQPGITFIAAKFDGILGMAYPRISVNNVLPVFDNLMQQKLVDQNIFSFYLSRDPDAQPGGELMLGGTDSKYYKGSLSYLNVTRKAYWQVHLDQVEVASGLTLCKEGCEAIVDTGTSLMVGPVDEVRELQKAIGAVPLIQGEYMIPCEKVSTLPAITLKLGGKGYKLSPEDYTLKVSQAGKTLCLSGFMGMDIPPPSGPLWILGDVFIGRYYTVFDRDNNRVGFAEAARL
Chain of Beta Secretase enzyme (BACE1) (P56817 46-501): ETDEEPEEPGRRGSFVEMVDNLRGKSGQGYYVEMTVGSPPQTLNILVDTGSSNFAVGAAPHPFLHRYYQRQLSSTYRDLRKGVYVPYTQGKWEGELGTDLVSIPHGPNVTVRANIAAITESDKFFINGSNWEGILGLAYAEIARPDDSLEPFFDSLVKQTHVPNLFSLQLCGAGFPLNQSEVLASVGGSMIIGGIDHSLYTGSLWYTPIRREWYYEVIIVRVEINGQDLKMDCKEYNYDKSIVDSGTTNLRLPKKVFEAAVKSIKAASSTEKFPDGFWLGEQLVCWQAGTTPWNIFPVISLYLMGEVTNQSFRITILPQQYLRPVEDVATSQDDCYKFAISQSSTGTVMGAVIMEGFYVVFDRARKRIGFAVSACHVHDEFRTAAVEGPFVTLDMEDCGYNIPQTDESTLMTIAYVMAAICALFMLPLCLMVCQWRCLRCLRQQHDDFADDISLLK

IC50 (Cathepsin D (Cat D)) | IC50 [2, 3] | IC50 [1, 4] | IC50 [1, 5] | Compound | further results
66.8 µM | 0.0167 µM | 0.00092 µM | – | CC1(C)C(N)=N[C@](C)(c2cc(Nc3nccc4cc(Cl)cnc34)ccc2F)[C@@H](F)S1(=O)=O [Example 168, (2S,3R)-5-amino-3-(5-((3-chloro-1,7-naphthyridin-8-yl)amino)-2-fluorophenyl)-2-fluoro-3,6,6-trimethyl-3,6-dihydro-2H-1,4-thiazine 1,1-dioxide] | –
61.6 µM | 0.626 µM | 0.0043 µM | – | CC(C)COc1cnc2c(Nc3ccc(F)c([C@]4(CF)CS(=O)(=O)C(C)(C)C(N)=N4)c3)ncc(F)c2c1 [Example 436, N-(3-((3S)-5-amino-3-(fluoromethyl)-6,6-dimethyl-1,1-dioxido-3,6-dihydro-2H-1,4-thiazin-3-yl)-4-fluorophenyl)-5-fluoro-3-(2-methylpropoxy)-1,7-naphthyridin-8-amine] | –
28.3 µM | 0.0051 µM | 0.00189 µM | – | C[C@@]1(c2cc(Nc3nccc4cc(C#N)cnc34)ccc2F)CS(=O)(=O)C2(CCC2)C(N)=N1 [Example 117, (R)-8-((3-(9-amino-7-methyl-5,5-dioxido-5-thia-8-azaspiro[3.5]non-8-en-7-yl)-4-fluorophenyl)amino)-1,7-naphthyridine-3-carbonitrile] | –
1120 µM | 0.0141 µM | 0.00088 µM | – | COc1cnc2c(Nc3ccc(F)c([C@]4(CF)CS(=O)(=O)C(C)(C)C(N)=N4)c3)nccc2n1 [Example 447, N-(3-((3S)-5-amino-3-(fluoromethyl)-6,6-dimethyl-1,1-dioxido-3,6-dihydro-2H-1,4-thiazin-3-yl)-4-fluorophenyl)-2-methoxypyrido[3,4-b]pyrazin-5-amine] | –
> 44 µM | – | – | 0.002 µM | CC1(C)C(N)=N[C@](C)(c2cc(Nc3ncc(F)c4cc(C#N)cnc34)ccc2F)CS1(=O)=O [Example 76, (R)-8-((3-(5-Amino-3,6,6-trimethyl-1,1-dioxido-3,6-dihydro-2H-1,4-thiazin-3-yl)-4-fluorophenyl)amino)-5-fluoro-1,7-naphthyridine-3-carbonitrile] | IC50 [2, 6]: 0.0039 µM
75.6 µM | – | 0.0313 µM | – | COc1cc(Cl)ccc1C(=O)Nc1ccc(F)c([C@]2(C)CS(=O)(=O)C(C)(C)C(N)=N2)c1 [Example 345, N-(3-((3R)-5-amino-3,6,6-trimethyl-1,1-dioxido-3,6-dihydro-2H-1,4-thiazin-3-yl)-4-fluorophenyl)-4-chloro-2-methoxybenzamide] | IC50 [2, 7]: 0.0713 µM
227 µM | 1.15 µM | 1.56 µM | – | CC1(C)C(N)=N[C@](C)(c2cc(Oc3ccc(C#N)cn3)ccc2F)CS1(=O)=O [Example 282, 6-(3-((3R)-5-amino-3,6,6-trimethyl-1,1-dioxido-3,6-dihydro-2H-1,4-thiazin-3-yl)-4-fluorophenoxy)-3-pyridinecarbonitrile] | –
28 µM | – | – | 0.00044 µM | Cc1cc(Cl)cnc1C(=O)Nc1ccc(F)c([C@@]2(C)N=C(N)C3(CC3)S(=O)(=O)[C@H]2F)c1 [Example 205, N-(3-((5R,6R)-8-amino-5-fluoro-6-methyl-4,4-dioxido-4-thia-7-azaspiro[2.5]oct-7-en-6-yl)-4-fluorophenyl)-5-chloro-3-methylpicolinamide] | IC50 ([2]; Homo sapiens, HEK293): 0.0026 µM
> 400 µM | – | – | – | CC1[C@@](C)(c2cc(Br)ccc2F)N=C(N)[C@](C)(F)S1(=O)=O (stereo partly drawn) [Example 459, (2R,5R)-5-(5-bromo-2-fluorophenyl)-2-fluoro-2,5,6-trimethyl-5,6-dihydro-2H-1,4-thiazin-3-amine 1,1-dioxide] | IC50 [1, 8]: 2.3 µM; IC50 [2, 9]: 5.47 µM
97.6 µM | – | – | 0.104 µM | COc1ccc2nc(C(=O)Nc3ccc(F)c([C@]4(CF)CS(=O)(=O)C(C)(C)C(N)=N4)c3)c(C)n2c1 [Example 392, N-(3-((3S)-5-amino-3-(fluoromethyl)-6,6-dimethyl-1,1-dioxido-3,6-dihydro-2H-1,4-thiazin-3-yl)-4-fluorophenyl)-6-methoxy-3-methylimidazo[1,2-a]pyridine-2-carboxamide] | IC50 ([2]; Homo sapiens, HEK293): 0.823 µM
771 µM | – | 2.89 µM | – | CC1(C)C(N)=N[C@](C)(c2cc(Oc3nccc(C(F)(F)F)c3C#N)ccc2F)CS1(=O)=O [Example 312, 2-(3-((3R)-5-amino-3,6,6-trimethyl-1,1-dioxido-3,6-dihydro-2H-1,4-thiazin-3-yl)-4-fluorophenoxy)-4-(trifluoromethyl)-3-pyridinecarbonitrile] | IC50 [2, 7]: 1.59 µM
111 µM | – | – | 0.00265 µM | N-(3-((4aR,7aR)-3-amino-2,2-dimethyl-1,1-dioxido-7,7a-dihydro-2H-furo[3,4-b][1,4]thiazin-4a(5H)-yl)-4-fluorophenyl)-5-(difluoromethoxy)-3-methyl-2-pyridinecarboxamide, N-(3-((4aS,7aS)-3-amino-2,2-dimethyl-1,1-dioxido-7,7a-dihydro-2H-furo[3,4-b][1,4]thiazin-4a(5H)-yl)-4-fluorophenyl)-5-(difluoromethoxy)-3-methyl-2-pyridinecarboxamide [Example 413] | IC50 [2]: 0.0103 µM
855 µM | 0.0651 µM | 0.00271 µM | – | Cc1cc(OCCF)cnc1C(=O)Nc1ccc(F)c([C@]2(CF)CS(=O)(=O)C(C)(C)C(N)=N2)c1 [Example 149, (S)—N-(3-(5-amino-3-(fluoromethyl)-6,6-dimethyl-1,1-dioxido-3,6-dihydro-2H-1,4-thiazin-3-yl)-4-fluorophenyl)-5-(2-fluoroethoxy)-3-methylpicolinamide] | –
99.9 µM | – | – | < 0.002 µM | C[C@]1(F)C(N)=N[C@](C)(c2cc(Nc3nccc4cc(C#N)cnc34)ccc2F)CS1(=O)=O [Example 60, 8-((3-((3R,6R)-5-amino-6-fluoro-3,6-dimethyl-1,1-dioxido-3,6-dihydro-2H-1,4-thiazin-3-yl)-4-fluorophenyl)amino)-1,7-naphthyridine-3-carbonitrile] | IC50 [2, 6]: 0.0808 µM
391 µM | – | – | 0.00156 µM | Cc1cc(OCC2CC2)cnc1C(=O)Nc1ccc(F)c([C@]2(CF)CS(=O)(=O)C3(CCC3)C(N)=N2)c1 [Example 371, N-(3-((7S)-9-amino-7-(fluoromethyl)-5,5-dioxido-5-thia-8-azaspiro[3.5]non-8-en-7-yl)-4-fluorophenyl)-5-(cyclopropylmethoxy)-3-methyl-2-pyridinecarboxamide] | IC50 ([2]; Homo sapiens, HEK293): 0.077 µM
195 µM | 1.82 µM | 0.65 µM | – | Cc1cc(-c2cnc(Oc3ccc(F)c([C@]4(C)CS(=O)(=O)C(C)(C)C(N)=N4)c3)c(F)c2)on1 [Example 256, (5R)-5-(2-fluoro-5-((3-fluoro-5-(3-methyl-5-isoxazolyl)-2-pyridinyl)oxy)phenyl)-2,2,5-trimethyl-5,6-dihydro-2H-1,4-thiazin-3-amine 1,1-dioxide] | –
504 µM | – | 0.00058 µM | – | CC1(C)C(N)=N[C@](C)(c2cc(NC(=O)c3cnc(OCC(F)F)cn3)ccc2F)CS1(=O)=O [Example 314, N-(3-((3R)-5-amino-3,6,6-trimethyl-1,1-dioxido-3,6-dihydro-2H-1,4-thiazin-3-yl)-4-fluorophenyl)-5-(2,2-difluoroethoxy)-2-pyrazinecarboxamide] | IC50 [2, 7]: 0.005 µM
476 µM | 0.1 µM | 0.0012 µM | – | CC1(C)C(N)=N[C@](CF)(c2cc(Nc3ncc(F)c4cc(OCC5CC5)cnc34)ccc2F)CS1(=O)=O [Example 431, N-(3-((3S)-5-amino-3-(fluoromethyl)-6,6-dimethyl-1,1-dioxido-3,6-dihydro-2H-1,4-thiazin-3-yl)-4-fluorophenyl)-3-(cyclopropylmethoxy)-5-fluoro-1,7-naphthyridin-8-amine] | –

Compound | IC50 (Cathepsin D (Cat D)) | IC50 [2, 3] | IC50 [1, 4] | IC50 [1, 5] | further results
CC1(C)C(N)=N[C@](C)(c2cc(Br)c[nH]c2=O)CS1(=O)=O [Example 169, (R)-3-(5-amino-3,6,6-trimethyl-1,1-dioxido-3,6-dihydro-2H-1,4-thiazin-3-yl)-5-bromopyridin-2(1H)-one] | > 400 µM | > 15.6 µM | – | – | IC50 [1]: 21.1 µM
CC1(C)C(N)=N[C@](C)(c2cc(Oc3ccc4ccccc4c3)ccc2F)CS1(=O)=O [Example 102, (R)-5-amino-3-(2-fluoro-5-(naphthalen-2-yloxy)phenyl)-3,6,6-trimethyl-3,6-dihydro-2H-1,4-thiazine 1,1-dioxide] | 51.2 µM | – | – | 2.35 µM | IC50 [2, 6]: 8.04 µM
CC1(C)C(N)=N[C@](C)(c2cc(Nc3ncc(C#C[Si](C)(C)C)c4cc(Cl)cnc34)ccc2F)CS1(=O)=O [Example 189, (R)-5-amino-3-(5-((3-chloro-5-((trimethylsilyl)ethynyl)-1,7-naphthyridin-8-yl)amino)-2-fluorophenyl)-3,6,6-trimethyl-3,6-dihydro-2H-1,4-thiazine 1,1-dioxide] | > 4.94 µM | 0.231 µM | 0.0068 µM | – | –
C[C@@]1(c2cc(Br)cnc2F)CS(=O)(=O)C2(CC2)C(N)=N1 [Example 455, (6R)-6-(5-bromo-2-fluoro-3-pyridinyl)-6-methyl-4-thia-7-azaspiro[2.5]oct-7-en-8-amine 4,4-dioxide] | 100 µM | – | – | – | IC50 [1, 8]: 12.5 µM; IC50 [2, 9]: > 15.6 µM
